Values of other authors, collected in article PMC4546577 (ACS chemical biology, 2015).

Details: sulphydryl group in MeaF; ref [69] PerrinDD, Dissociation constants of organic bases in aqueous solution, 1965

N[C@@H](Cc1cccc(NCCS)c1)C(=O)O [MeaF, 3-(2-mercapto-ethyl)amino-phenylalanine]
pKa (sulphydryl group): ~ 8.5
